Assay results as given in the NIST ThermoML archive (doi:10.1021/acs.jced.8b01120).

Test: xn = mol fraction of the nth substance listed
Conditions: 100 kPa, Liquid; for speed of sound: Single path-length method; for mass density: Vibrating tube method

CCCCN(CCCC)CCCC [tributylamine] + CCCCOC(C)=O
Conditions | mass density, 293.15 K [kg/m3] | mass density, 298.15 K [kg/m3] | mass density, 303.15 K [kg/m3] | mass density, 308.15 K [kg/m3] | mass density, 313.15 K [kg/m3] | speed of sound, 293.15 K [m/s] | speed of sound, 298.15 K [m/s] | speed of sound, 303.15 K [m/s] | speed of sound, 308.15 K [m/s] | speed of sound, 313.15 K [m/s]
x1 = 0.0535 | 870.397 | 865.288 | 860.118 | 854.99 | 849.73 | 1214 | 1193.8 | 1175.2 | 1156 | 1132.7
x1 = 0.11 | 859.603 | 854.617 | 849.591 | 844.604 | 839.544 | 1217.1 | 1196.9 | 1178.2 | 1158.9 | 1135.7
x1 = 0.2003 | 844.278 | 839.544 | 834.725 | 829.963 | 825.128 | 1221.8 | 1201.9 | 1183.5 | 1163.8 | 1141.7
x1 = 0.3239 | 827.789 | 823.24 | 818.635 | 814.11 | 809.428 | 1228.3 | 1208.9 | 1189.5 | 1170.4 | 1148.8
x1 = 0.4004 | 818.98 | 814.604 | 810.171 | 805.768 | 801.312 | 1232.5 | 1212.3 | 1193.6 | 1174.4 | 1153.5
x1 = 0.502 | 809.109 | 804.828 | 800.541 | 796.282 | 791.968 | 1237.7 | 1217.4 | 1199.2 | 1180.1 | 1158.9
x1 = 0.592 | 801.571 | 797.439 | 793.26 | 789.105 | 784.862 | 1242.4 | 1222.7 | 1203.4 | 1185.3 | 1164.7
x1 = 0.7201 | 792.16 | 788.147 | 784.362 | 780.344 | 775.931 | 1249.1 | 1229.7 | 1210.9 | 1192 | 1171.8
x1 = 0.8002 | 787.449 | 783.513 | 779.542 | 775.588 | 771.559 | 1253.5 | 1233.7 | 1215 | 1195.9 | 1176.6
x1 = 0.9065 | 781.614 | 777.793 | 773.938 | 770.069 | 766.156 | 1259.1 | 1240 | 1220.6 | 1201.7 | 1183.1
x1 = 1 | 777.006 | 773.28 | 769.552 | 765.811 | 762.061 | 1264.2 | 1245.2 | 1226.2 | 1207.4 | 1188.8

CCCCN(CCCC)CCCC [tributylamine] + CCCOC(C)=O
Conditions | mass density, 293.15 K [kg/m3] | mass density, 298.15 K [kg/m3] | mass density, 303.15 K [kg/m3] | mass density, 308.15 K [kg/m3] | mass density, 313.15 K [kg/m3] | speed of sound, 293.15 K [m/s] | speed of sound, 298.15 K [m/s] | speed of sound, 303.15 K [m/s] | speed of sound, 308.15 K [m/s] | speed of sound, 313.15 K [m/s]
x1 = 0.0509 | 876.475 | 871.105 | 865.344 | 859.857 | 854.206 | 1193.8 | 1167.9 | 1148.6 | 1127.2 | 1105.2
x1 = 0.1204 | 861.989 | 856.798 | 851.275 | 845.985 | 840.603 | 1198.3 | 1173.2 | 1154.3 | 1132.9 | 1111.2
x1 = 0.2066 | 846.28 | 841.395 | 836.192 | 831.184 | 826.095 | 1205.3 | 1180.5 | 1161.6 | 1140.7 | 1119.1
x1 = 0.306 | 831.793 | 827.121 | 822.274 | 817.519 | 812.694 | 1212 | 1188.5 | 1169.1 | 1148.2 | 1127.6
x1 = 0.4043 | 819.864 | 815.394 | 810.785 | 806.239 | 801.63 | 1219.3 | 1196.3 | 1177 | 1156.6 | 1136
x1 = 0.5015 | 809.872 | 805.603 | 801.221 | 796.775 | 792.345 | 1226.3 | 1204.6 | 1185.2 | 1165.4 | 1144.9
x1 = 0.6007 | 801.215 | 797.082 | 792.841 | 788.618 | 784.342 | 1233.2 | 1212.4 | 1192.9 | 1172.6 | 1153.4
x1 = 0.7102 | 793.047 | 789.025 | 784.905 | 780.824 | 776.694 | 1241.2 | 1221.4 | 1201.8 | 1182.1 | 1162.6
x1 = 0.8007 | 787.307 | 783.381 | 779.377 | 775.39 | 771.367 | 1248.5 | 1228.5 | 1209.3 | 1190 | 1171.2
x1 = 0.9008 | 781.809 | 777.98 | 774.088 | 770.204 | 766.273 | 1255.7 | 1236.5 | 1217.8 | 1197.9 | 1179.1
x1 = 1 | 777.006 | 773.283 | 769.552 | 765.811 | 762.061 | 1264.2 | 1245.2 | 1226.2 | 1207.4 | 1188.8

CCCCN(CCCC)CCCC [tributylamine] + COC(C)=O
Conditions | mass density, 293.15 K [kg/m3] | mass density, 298.15 K [kg/m3] | mass density, 303.15 K [kg/m3] | mass density, 308.15 K [kg/m3] | mass density, 313.15 K [kg/m3] | speed of sound, 293.15 K [m/s] | speed of sound, 298.15 K [m/s] | speed of sound, 303.15 K [m/s] | speed of sound, 308.15 K [m/s] | speed of sound, 313.15 K [m/s]
x1 = 0.0501 | 913.106 | 906.572 | 900.184 | 893.938 | 887.487 | 1184.6 | 1160.4 | 1140 | 1113.4 | 1094.9
x1 = 0.1009 | 893.96 | 887.924 | 881.943 | 875.744 | 869.547 | 1188.9 | 1165.2 | 1144.5 | 1118 | 1099.6
x1 = 0.2003 | 864.36 | 858.987 | 853.583 | 848.346 | 842.744 | 1197.3 | 1174.1 | 1153.7 | 1128.1 | 1109.7
x1 = 0.2941 | 843.967 | 838.976 | 833.982 | 828.97 | 823.819 | 1205.6 | 1182.6 | 1161 | 1137.7 | 1118.6
x1 = 0.4009 | 826.428 | 821.765 | 817.081 | 812.409 | 807.525 | 1213.9 | 1191.9 | 1171.2 | 1148.1 | 1129.6
x1 = 0.5004 | 813.696 | 809.242 | 804.881 | 800.355 | 795.747 | 1222.5 | 1200.4 | 1180.6 | 1158.4 | 1138.9
x1 = 0.6008 | 803.345 | 799.107 | 794.831 | 790.504 | 786.225 | 1230.4 | 1209.5 | 1190.4 | 1167.9 | 1149.1
x1 = 0.7008 | 794.987 | 790.893 | 786.764 | 782.571 | 778.432 | 1239 | 1218.5 | 1198.7 | 1177.6 | 1159
x1 = 0.8004 | 788.147 | 784.162 | 780.197 | 776.154 | 772.052 | 1247.6 | 1227 | 1207.9 | 1187.8 | 1168.5
x1 = 0.9003 | 782.234 | 778.353 | 774.459 | 770.516 | 766.597 | 1255.7 | 1236.1 | 1217 | 1197.3 | 1177.8
x1 = 1 | 777.01 | 773.283 | 769.55 | 765.81 | 762.06 | 1264.2 | 1245.2 | 1226.2 | 1207.4 | 1188.8
